Assay results reported in PMC4168258 (Biochemical pharmacology, 2014).
Each block holds one compound with its values, some of them ahead of it.

Key:
[1] = cited from earlier work
[2] = mouse, in vivo, po, 40 mg/kg
CYP2C9 = CYP2C9 (Homo sapiens, UniProt P11712); experiment: Kinetic study of metabolite formation by recombinant CYP2C9; conditions: recombinant CYP2C9 incubations
[3] = cited from earlier work; remark: listed apart in the source

Sequence of CYP2C9 (P11712 whole entry): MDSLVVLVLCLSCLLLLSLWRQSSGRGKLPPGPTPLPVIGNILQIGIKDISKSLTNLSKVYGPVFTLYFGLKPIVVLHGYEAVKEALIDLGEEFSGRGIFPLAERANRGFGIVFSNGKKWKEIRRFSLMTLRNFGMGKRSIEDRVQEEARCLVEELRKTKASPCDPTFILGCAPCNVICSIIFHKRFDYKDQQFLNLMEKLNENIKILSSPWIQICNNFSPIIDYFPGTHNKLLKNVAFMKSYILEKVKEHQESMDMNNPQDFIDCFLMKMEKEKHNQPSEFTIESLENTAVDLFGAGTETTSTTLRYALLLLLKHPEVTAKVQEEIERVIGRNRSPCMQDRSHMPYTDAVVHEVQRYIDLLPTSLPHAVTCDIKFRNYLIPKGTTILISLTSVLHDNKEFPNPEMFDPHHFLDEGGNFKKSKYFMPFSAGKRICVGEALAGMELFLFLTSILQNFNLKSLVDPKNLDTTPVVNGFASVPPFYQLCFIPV

SMILES: O=C(C1CCCCC1)N1CC(=O)N2CCc3ccccc3[C@H]2C1 [(S)-PZQ]
systemic levels compared with (R)-PZQ [1]: higher

Source (matrix in which detected) [2]: urine, feces
SMILES: O=C(C1CCC(O)CC1)N1CC(=O)N2CCc3ccccc3C2C1 (centres unmarked) [III, 4-OH PZQ]

SMILES: O=C(C1CCCCC1)N1CC(=O)N2CCc3ccccc3[C@@H]2C1 [(R)-PZQ]
production of metabolite V (CYP2C9): not detected | side effects compared with racemic PZQ ([3]; single administration of 20 mg/kg vs 40 mg/kg racemic): fewer side effects | activity compared with 40 mg/kg of racemic PZQ ([3]; single administration of 20 mg/kg): same activity
